# Laboratory results published in patent publication US20110172296A1, “MODULATION OF TRANSFORMING GROWTH FACTOR-BETA 1 EXPRESSION” (priority 2010, published 2011).
# Several values for one entry are separate records, joined by “and”; a condition that tells them apart may be missing. Identical values can stand only once. e = 2'-O-(2-methoxyethyl) (MOE); d = 2'-deoxy (DNA)
# How the values were obtained:
# human TGF-beta1 mRNA [1] = assay: Dose-dependent confirmation of antisense inhibition of human TGF-beta1 in HuVEC cells, electroporation (Example 6); assay type: cell-based
# Method: The gapmers from Example 5 (see Table 5) were also tested at various doses in HuVEC cells using electroporation as the transfection reagent. Cells were plated at a density of 20,000 cells per well and transfected using electroporation with 0.15625 nM, 0.3125 nM, 0.625 nM, 1.25 nM, 2.5 nM, 5 nM, 10 nM, and 20 nM concentrations of antisense oligonucleotide for 4 hours, as specified in Table 6. After a recovery period of approximately 16 hours, RNA was isolated from the cells and TGF-beta1 mRNA levels were measured by quantitative real-time PCR. TGF-beta1 mRNA levels were adjusted according to total RNA content, as measured by RIBOGREEN®. Results are presented as percent inhibition of TGF-beta1, relative to untreated control cells.
# human TGF-beta1 mRNA [2] = assay: Dose-dependent antisense inhibition of human TGF-beta1 in HuVEC cells, Lipofectamine 2000, 0.3292-80 nM, comparison with oligos of U.S. Pat. No. 6,436,909 (Example 4); assay type: cell-based
# Method: The dose-dependent antisense inhibition potential of these gapmers was compared with that of Oligo IDs 104992 and 1138498 from U.S. Pat. No. 6,436,909. Cells were plated at a density of 5,000 cells per well and transfected using Lipofectamine™ 2000 reagent with 0.3292 nM, 0.9877 nM, 2.963 nM, 8.8889 nM, 26.6667 nM, and 80 nM concentrations of antisense oligonucleotide for 4 hours, as specified in Table 4. After a recovery period of approximately 16 hours, RNA was isolated from the cells and TGF-beta1 mRNA levels were measured by quantitative real-time PCR. Human TGF-beta1 primer probe set RTS 2980 was used to measure mRNA levels. TGF-beta1 mRNA levels were adjusted according to total RNA content, as measured by RIBOGREEN®. Results are presented as percent inhibition of TGF-beta1, relative to untreated control cells. […] All the antisense oligonucleotides in Table 4 target human TGF-beta1 mRNA (SEQ ID NO: 1).
# BALB/c mice [3] = settings: mouse, in vivo
# Method: (§1) These gapmer oligonucleotides were designed to target human TGF-beta1 and have varying degrees of mismatch with murine TGF-beta1 sequence, as shown in Table 1. Oligo ID Nos. 413982 and 414040 have greater than 3 mismatches to the murine TGF-beta1 sequence. Oligo ID No. 414035 has 2 mismatches to murine TGF-beta1. Oligo ID No. 414036 has no mismatches to murine TGF-beta1.
# (§2) BALB/c mice were injected with 25 mg/kg or 50 mg/kg of Oligo ID Nos. 413982, 414035, 414036, or 414040 twice a week for 4 weeks. A control group of mice was injected with phosphate buffered saline (PBS) twice a week for 4 weeks. Plasma transaminase levels were evaluated bi-weekly.
# (§3) To evaluate the impact of TGF-beta1 antisense oligonucleotides on the hepatic function of mice described above, plasma concentrations of transaminases were measured using an automated clinical chemistry analyzer (Hitachi Olympus AU400e, Melville, N.Y.).
# human TGF-beta1 mRNA [4] = assay: Dose-dependent confirmation of antisense inhibition of human TGF-beta1 in HuVEC cells after large-scale synthesis, Lipofectamine 2000, 0.007-15 nM (Example 5); assay type: cell-based; settings: for percent inhibition of TGF-beta1: Lipofectamine 2000
# Method: Cells were plated at a density of 5,000 cells per well and transfected using Lipofectamine™ 2000 reagent with 0.007 nM, 0.021 nM, 0.062 nM, 0.185 nM, 0.556 nM, 1.667 nM, 5 nM, and 15 nM concentrations of antisense oligonucleotide for 4 hours, as specified in Table 5. After a recovery period of approximately 16 hours, RNA was isolated from the cells and TGF-beta1 mRNA levels were measured by quantitative real-time PCR. Human TGF-beta1 primer probe set RTS 2980 was used to measure mRNA levels. TGF-beta1 mRNA levels were adjusted according to total RNA content, as measured by RIBOGREEN®. Results are presented as percent inhibition of TGF-beta1, relative to untreated control cells.
# human TGF-beta1 mRNA [5] = assay: Antisense inhibition of human TGF-beta1 mRNA in HuVEC cells, single 10 nM dose, Lipofectamine 2000 (Example 2); assay type: cell-based
# Procedure, shortened: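 HuVEC cells (5,000/well) transfected with 10 nM 2-13-5 MOE gapmer (phosphorothioate, 5-methylcytosine) via Lipofectamine 2000 for 4 h, then recovered ~24 h. mRNA measured by qRT-PCR, normalized to RIBOGREEN total RNA; percent inhibition versus untreated cells.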
# human TGF-beta1 mRNA [6] = assay: Dose-dependent antisense inhibition of human TGF-beta1 in HuVEC cells, Lipofectamine 2000, 0.9375-30 nM (Example 3); assay type: cell-based; settings: Lipofectamine 2000
# Procedure, shortened: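 HuVEC cells, 5,000/well, were transfected with Lipofectamine 2000 and 0.9375-30 nM antisense oligonucleotide for 4 h, then recovered about 16 h. TGF-beta1 mRNA was quantified by real-time PCR (primer probe set RTS 2980), normalised to RIBOGREEN total RNA, and expressed as percent inhibition versus untreated cells.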
# BALB/c mice [7] = assay: Tolerability in BALB/c mice: plasma transaminases ALT and AST (Example 7); settings: for aspartate transaminase levels: plasma
# Method: as §1, §2, §3
# [8] = test system: Col1α2 mRNA expression in rat skin; assay: Col1α2 mRNA expression in rat model of skin fibrosis and wounding, intradermal treatment (Example 9); assay type: in vivo
# Excerpt: Scar and fibrotic tissues are mainly composed of collagen, especially collagen1α2 (Col1α2). Therefore, the expression of Col1α2 can be used as a marker for the severity of scarring, especially in skin. We have evaluated the ability of a TGF-beta1 ASO to suppress the expression of Col1α2 in rat skin subsequent to full-thickness skin wounding, an injury that typically leads to a 4-6 fold induction in Col1α2 expression.
# On Day 1 of the study, a 0.8 centimeter biopsy punch was used to create full-thickness wounds on the back of anesthetized adult hairless rats. Two biopsies were performed on each rat's back; one in the lower left quadrant, and one in the upper right quadrant. The wounds were left open, but dressed with a sterile occlusive bandage, which were left in place for 24 hours.
# Biopsy sites were treated intradermally with PBS (vehicle) or a 3 mg dose of a rat specific TGF-beta1 antisense oligonucleotide (Oligo ID 433849; SEQ ID NO. 166) on Days 1, 5, 9, and 13 post-biopsy. Animals were sacrificed on Day 14 post-biopsy. […]
# A subset of the excised skin from each initial biopsy site was retained and prepared for Col1α2 mRNA expression (by RT-PCR). […] On day 15, animals were euthanized, a sample of skin from the center of the wound was obtained with a 0.5 cm biopsy punch, and Col1α2 mRNA expression determined.
substance,measurement,setting,value
"414035 (antisense GTCCTTAAATACAGCCCCCA; sugars from the 5' end e2 d13 e5, backbone and methylation of C not given here) [compound 414035]",percent inhibition of TGF-beta1 mRNA relative to untreated control cells,human TGF-beta1 mRNA [1]; 0.15625 nM oligonucleotide,17%
same,percent inhibition of TGF-beta1 mRNA relative to untreated control cells,human TGF-beta1 mRNA [1]; 0.3125 nM oligonucleotide,49%
same,percent inhibition of TGF-beta1 mRNA relative to untreated control cells,human TGF-beta1 mRNA [1]; 0.625 nM oligonucleotide,63%
same,percent inhibition of TGF-beta1 mRNA relative to untreated control cells,human TGF-beta1 mRNA [1]; 1.25 nM oligonucleotide,77%
same,percent inhibition of TGF-beta1 mRNA relative to untreated control cells,human TGF-beta1 mRNA [1]; 2.5 nM oligonucleotide,89%
same,percent inhibition of TGF-beta1 mRNA relative to untreated control cells,human TGF-beta1 mRNA [1]; 5.00 nM oligonucleotide,94%
same,percent inhibition of TGF-beta1 mRNA relative to untreated control cells,human TGF-beta1 mRNA [1]; 10.00 nM oligonucleotide,94%
same,percent inhibition of TGF-beta1 mRNA relative to untreated control cells,human TGF-beta1 mRNA [1]; 20 nM oligonucleotide,94%
same,percent inhibition of TGF-beta1,human TGF-beta1 mRNA [2]; 0.3292 nM,74%
same,percent inhibition of TGF-beta1,human TGF-beta1 mRNA [2]; 0.9877 nM,84%
same,percent inhibition of TGF-beta1,human TGF-beta1 mRNA [2]; 2.963 nM,92%
same,percent inhibition of TGF-beta1,human TGF-beta1 mRNA [2]; 8.8889 nM,94%
same,percent inhibition of TGF-beta1,human TGF-beta1 mRNA [2]; 26.6667 nM,93%
same,percent inhibition of TGF-beta1,human TGF-beta1 mRNA [2]; 80.0 nM,93%
same,tolerability compared to Oligo ID 105204,BALB/c mice [3],improved tolerability
same,percent inhibition of TGF-beta1,human TGF-beta1 mRNA [4]; 0.007 nM,9%
same,percent inhibition of TGF-beta1,human TGF-beta1 mRNA [4]; 0.021 nM,26%
same,percent inhibition of TGF-beta1,human TGF-beta1 mRNA [4]; 0.062 nM,45%
same,percent inhibition of TGF-beta1,human TGF-beta1 mRNA [4]; 0.185 nM,59%
same,percent inhibition of TGF-beta1,human TGF-beta1 mRNA [4]; 0.556 nM,76%
same,percent inhibition of TGF-beta1,human TGF-beta1 mRNA [4]; 1.667 nM,84%
same,percent inhibition of TGF-beta1,human TGF-beta1 mRNA [4]; 5 nM,90%
same,percent inhibition of TGF-beta1,human TGF-beta1 mRNA [4]; 15 nM,91%
same,IC50,"human TGF-beta1 mRNA [4]; Lipofectamine 2000, Example 5",0.13 nM
same,% inhibition,"human TGF-beta1 mRNA [5]; 10 nM oligonucleotide, HuVEC, relative to untreated control cells, gapmers targeted to SEQ ID NO: 1",89%
same,inhibition of a TGF-beta1 mRNA,"human TGF-beta1 mRNA [5]; threshold lists of Oligo IDs, 10 nM",60% and 65% and 70% and 75% and 80% and 85%
same,percent inhibition of TGF-beta1,human TGF-beta1 mRNA [6]; 0.9375 nM,64%
same,percent inhibition of TGF-beta1,human TGF-beta1 mRNA [6]; 1.875 nM,75%
same,percent inhibition of TGF-beta1,human TGF-beta1 mRNA [6]; 3.75 nM,88%
same,percent inhibition of TGF-beta1,human TGF-beta1 mRNA [6]; 7.5 nM,94%
same,percent inhibition of TGF-beta1,human TGF-beta1 mRNA [6]; 15 nM,95%
same,percent inhibition of TGF-beta1,human TGF-beta1 mRNA [6]; 30 nM,94%
same,alanine transaminase levels,"BALB/c mice [7]; 25 mg/kg twice a week, Week 2",56 IU/L
same,alanine transaminase levels,"BALB/c mice [7]; 25 mg/kg twice a week, Week 4",45 IU/L
same,aspartate transaminase levels,"BALB/c mice [7]; 25 mg/kg twice a week, Week 2",82 IU/L
same,aspartate transaminase levels,"BALB/c mice [7]; 25 mg/kg twice a week, Week 4",116 IU/L
same,alanine transaminase levels,"BALB/c mice [7]; 50 mg/kg twice a week, Week 2",66 IU/L
same,alanine transaminase levels,"BALB/c mice [7]; 50 mg/kg twice a week, Week 4",67 IU/L
same,aspartate transaminase levels,"BALB/c mice [7]; 50 mg/kg twice a week, Week 2",123 IU/L
same,aspartate transaminase levels,"BALB/c mice [7]; 50 mg/kg twice a week, Week 4",155 IU/L
same,increase in ALT/AST,BALB/c mice [7]; 25 or 50 mg/kg twice a week for four weeks,< 3 fold
"433849 (antisense GTCCTTAAATACAGCCCCGG; listed as DNA, chemistry not given here) [compound 433849]",expression of Col1α2 in rat skin,"[8]; 3 mg intradermally on Days 1, 5, 9, 13 post-biopsy, day 14 after skin wounding",significantly reduced
same,% Col1α2 mRNA compared to the unwounded control,"[8]; hairless rats, full-thickness skin wound, 3 mg intradermal on Days 1, 5, 9, 13, day 14 after skin wounding",83%
